According to PubChem BioAssay AID328 (DTP/NCI, 2004):
Values joined by “and” are separate entries in the source; they are usually repeats but may differ in a detail not shown here. Identical values can stand only once. Inconclusive results and toxic doses are left out.

Tested on: BDF1 mice, P388 leukemia ip, median survival T/C
Assay: NCI In Vivo Anticancer Drug Screen. Data for tumor model P388 Leukemia (intraperitoneal) in B6D2F1 (BDF1) mice
Conditions: endpoint: median survival time, higher = longer survival
Description: The antitumor activity of compounds was measured in mice bearing transplantable tumors. Survival or tumor size were measured and the results are expressed as the measurement made in the treated group (T) divided by the measurement made in the vehicle treated control group (C). The tumor model used in this assay is P388 Leukemia (intraperitoneal) in B6D2F1 (BDF1) mice

[1] = dose: 100.0 mg/kg/injection, schedule: Q04DX003 (ip), vehicle: saline with Tween-80
[2] = dose: 200.0 mg/kg/injection, schedule: Q04DX003 (ip), vehicle: saline with Tween-80
[3] = dose: 400.0 mg/kg/injection, schedule: Q04DX003 (ip), vehicle: saline with Tween-80
[4] = dose: 100.0 mg/kg/injection, schedule: Q01DX009 (ip), vehicle: saline
[5] = dose: 200.0 mg/kg/injection, schedule: Q01DX009 (ip), vehicle: saline
[6] = dose: 50.0 mg/kg/injection, schedule: Q01DX009 (ip), vehicle: Klucel (hydroxypropylcellulose) (HPC)
[7] = dose: 100.0 mg/kg/injection, schedule: Q01DX009 (ip), vehicle: saline with Tween-80
[8] = dose: 50.0 mg/kg/injection, schedule: Q01DX009 (ip), vehicle: saline with Tween-80
[9] = dose: 200.0 mg/kg/injection, schedule: Q01DX009 (ip), vehicle: saline with Tween-80
[10] = dose: 100.0 mg/kg/injection, schedule: Q04DX003 (ip), vehicle: Klucel (hydroxypropylcellulose) (HPC)
[11] = dose: 400.0 mg/kg/injection, schedule: Q01DX009 (ip), vehicle: saline with Tween-80

With `CCC1(O)CC2CN(CCc3c([nH]c4ccccc34)C(C(=O)OC)(c3cc4c(cc3OC)N(C)C3C(O)(C(=O)NCCO)C(O)C5(CC)C=CCN6CCC43C65)C2)C1` (stereo not given) the T/C (dose: 500.0 micrograms/kg/injection, schedule: Q04DX003 (ip), vehicle: saline) was 173 % of control, the T/C (dose: 1000.0 micrograms/kg/injection, schedule: Q04DX003 (ip), vehicle: saline) was 182 % of control and the T/C (dose: 2000.0 micrograms/kg/injection, schedule: Q04DX003 (ip), vehicle: saline) was 219 % of control. The T/C (dose: 4000.0 micrograms/kg/injection, schedule: Q04DX003 (ip), vehicle: saline) was 286 % of control.
For `O=C(O)c1ccccc1-c1ccccc1C(=O)O`, the T/C [1] was 95 % of control, the T/C [2] was 104 % of control and the T/C [3] was 104 % of control.
For `CCC(CO)N1CNC(=S)NC1` (stereo not given), the T/C (dose: 50.0 mg/kg/injection, schedule: Q01DX009 (ip), vehicle: saline) was 97 % of control, the T/C [4] was 92 % of control and the T/C [5] was 108 % of control.
With `O=[N+]([O-])c1cc([N+](=O)[O-])c(Nc2cccc3ccccc23)c([N+](=O)[O-])c1` the T/C [6] was 100 % of control, the T/C (dose: 100.0 mg/kg/injection, schedule: Q01DX009 (ip), vehicle: Klucel (hydroxypropylcellulose) (HPC)) was 100 % of control and the T/C (dose: 200.0 mg/kg/injection, schedule: Q01DX009 (ip), vehicle: Klucel (hydroxypropylcellulose) (HPC)) was 103 % of control.
`C[Si](C)(C)Nc1ncnc2c1ncn2[Si](C)(C)C` was tested, and the T/C [7] was 91 % of control.
For `CS(=O)(=O)OC[C@H](OS(=O)(=O)O)[C@H](COS(C)(=O)=O)OS(=O)(=O)O`, the T/C (dose: 50.0 mg/kg/injection, schedule: Q04DX003 (ip), vehicle: saline with Tween-80) was 110 % of control, the T/C [1] was 110 % of control and the T/C [2] was 110 % of control.
In the case of `O=C(NNc1ccccc1)C(F)(F)F`, the T/C (dose: 12.5 mg/kg/injection, schedule: Q01DX009 (ip), vehicle: Klucel (hydroxypropylcellulose) (HPC)) was 90 % of control, the T/C (dose: 25.0 mg/kg/injection, schedule: Q01DX009 (ip), vehicle: Klucel (hydroxypropylcellulose) (HPC)) was 95 % of control and the T/C (dose: 37.5 mg/kg/injection, schedule: Q04DX003 (ip), vehicle: saline with Tween-80) was 100 % of control. The T/C [6] was 110 % of control, the T/C (dose: 56.25 mg/kg/injection, schedule: Q01DX001 (ip), vehicle: saline with Tween-80) was 104 % of control and the T/C (dose: 75.0 mg/kg/injection, schedule: Q04DX003 (ip), vehicle: saline with Tween-80) was 104 % of control. The T/C (dose: 112.5 mg/kg/injection, schedule: Q01DX001 (ip), vehicle: saline with Tween-80) was 100 % of control.
For `COc1cccc(C(=O)C=C(C(F)(F)F)C(F)(F)F)c1`, the T/C (dose: 11.0 mg/kg/injection, schedule: Q01DX009 (ip), vehicle: saline with Tween-80) was 109 % of control, the T/C (dose: 16.5 mg/kg/injection, schedule: Q01DX009 (ip), vehicle: saline with Tween-80) was 109 % of control and the T/C (dose: 25.0 mg/kg/injection, schedule: Q01DX009 (ip), vehicle: saline with Tween-80) was 113 % of control.
In the case of `OCc1ccccc1Sc1ccccc1CO`, the T/C [8] was 91 % of control, the T/C [7] was 100 % of control and the T/C [9] was 99 % of control.
In the case of `C[C@]12CC[C@H]3C(=CCc4cc(O)ccc43)[C@@H]1C/C(=N\O)C2=O`, the T/C [4] was 90 % of control, the T/C [10] was 104 % of control and the T/C [5] was 100 % of control. The T/C (dose: 200.0 mg/kg/injection, schedule: Q04DX003 (ip), vehicle: Klucel (hydroxypropylcellulose) (HPC)) was 95 % of control, the T/C (dose: 264.0 mg/kg/injection, schedule: Q01DX009 (ip), vehicle: saline with Tween-80) was 109 % of control and the T/C [11] was 104 % of control. The T/C (dose: 400.0 mg/kg/injection, schedule: Q01DX009 (ip), vehicle: saline) was 95 % of control, the T/C (dose: 400.0 mg/kg/injection, schedule: Q04DX003 (ip), vehicle: Klucel (hydroxypropylcellulose) (HPC)) was 90 % of control and the T/C (dose: 600.0 mg/kg/injection, schedule: Q01DX009 (ip), vehicle: saline with Tween-80) was 109 % of control.
With `O=C(O)CCC(=O)c1ccc(C2CCCCCC2)cc1` the T/C [8] was 110 % of control, the T/C [7] was 115 % of control and the T/C (dose: 100.0 mg/kg/injection, schedule: Q04DX003 (ip), vehicle: saline) was 95 % of control. The T/C [9] was 110 % of control and the T/C (dose: 400.0 mg/kg/injection, schedule: Q04DX003 (ip), vehicle: saline) was 100 % of control.
In the case of `NC(CSCc1ccc(N(CCCl)CCCl)cc1)C(=O)O` (stereo not given), the T/C (dose: 1.2 mg/kg/injection, schedule: Q04DX003 (ip), vehicle: Klucel (hydroxypropylcellulose) (HPC)) was 95 % of control, the T/C (dose: 2.6 mg/kg/injection, schedule: Q04DX003 (ip), vehicle: Klucel (hydroxypropylcellulose) (HPC)) was 154 % of control and the T/C (dose: 4.0 mg/kg/injection, schedule: Q01DX009 (ip), vehicle: saline with Tween-80) was 183 % of control. The T/C (dose: 6.0 mg/kg/injection, schedule: Q01DX009 (ip), vehicle: saline with Tween-80) was 206 % of control, the T/C (dose: 6.0 mg/kg/injection, schedule: Q04DX003 (ip), vehicle: Klucel (hydroxypropylcellulose) (HPC)) was 154 % of control and the T/C (dose: 9.0 mg/kg/injection, schedule: Q01DX009 (ip), vehicle: saline with Tween-80) was 223 % of control. The T/C (dose: 13.0 mg/kg/injection, schedule: Q04DX003 (ip), vehicle: Klucel (hydroxypropylcellulose) (HPC)) was 190 % of control, the T/C (dose: 20.0 mg/kg/injection, schedule: Q04DX003 (ip), vehicle: Klucel (hydroxypropylcellulose) (HPC)) was 204 % of control and the T/C (dose: 22.0 mg/kg/injection, schedule: Q01DX009 (ip), vehicle: Klucel (hydroxypropylcellulose) (HPC)) was 272 % of control. The T/C (dose: 30.0 mg/kg/injection, schedule: Q04DX003 (ip), vehicle: Klucel (hydroxypropylcellulose) (HPC)) was 238 % of control and 272 % of control, the T/C (dose: 33.0 mg/kg/injection, schedule: Q01DX009 (ip), vehicle: Klucel (hydroxypropylcellulose) (HPC)) was 231 % of control and the T/C (dose: 44.0 mg/kg/injection, schedule: Q04DX003 (ip), vehicle: Klucel (hydroxypropylcellulose) (HPC)) was 238 % of control. The T/C [6] was 240 % of control and 250 % of control, the T/C (dose: 67.0 mg/kg/injection, schedule: Q04DX003 (ip), vehicle: Klucel (hydroxypropylcellulose) (HPC)) was 235 % of control and 223 % of control and the T/C (dose: 75.0 mg/kg/injection, schedule: Q01DX009 (ip), vehicle: Klucel (hydroxypropylcellulose) (HPC)) was 104 % of control. For the same molecule, the T/C [10] was 220 % of control and the T/C (dose: 150.0 mg/kg/injection, schedule: Q04DX003 (ip), vehicle: Klucel (hydroxypropylcellulose) (HPC)) was 160 % of control.
`NC(Cn1cc(N(CCCl)CCCl)c(=O)[nH]c1=O)C(=O)O` (stereo not given) was tested, and the T/C (dose: 6.0 mg/kg/injection, schedule: Q01DX009 (ip), vehicle: saline) was 175 % of control, the T/C (dose: 12.0 mg/kg/injection, schedule: Q01DX009 (ip), vehicle: saline) was 189 % of control and the T/C (dose: 24.0 mg/kg/injection, schedule: Q01DX009 (ip), vehicle: saline) was 215 % of control.
In the case of `CC1([CH2][Hg][Cl])Cc2ccccc2O1` (stereo not given), the T/C (dose: 1.56 mg/kg/injection, schedule: Q04DX003 (ip), vehicle: saline with Tween-80) was 92 % of control and the T/C (dose: 3.13 mg/kg/injection, schedule: Q04DX003 (ip), vehicle: saline with Tween-80) was 88 % of control.
In the case of `ClC(Cl)(Cl)C(N1CCN(c2ccccc2)CC1)N1CCN(c2ccccc2)CC1`, the T/C [8] was 104 % of control, the T/C [7] was 100 % of control and the T/C [9] was 95 % of control.
For `CC(C)CCS(=O)(=O)OCCCCOS(=O)(=O)CCC(C)C`, the T/C [7] was 114 % of control, the T/C [1] was 100 % of control and the T/C [9] was 109 % of control. For the same molecule, the T/C [2] was 100 % of control, the T/C [11] was 114 % of control and the T/C [3] was 104 % of control.
In the case of `CNc1c(F)c(C#N)c(F)c(F)c1C#N`, the T/C [8] was 119 % of control.
`CCN(c1ccccc1)c1cc2c(cc1[N+](=O)[O-])no[n+]2[O-]` was tested, and the T/C (dose: 30.0 mg/kg/injection, schedule: Q01DX009 (ip), vehicle: saline with Tween-80) was 123 % of control and the T/C (dose: 60.0 mg/kg/injection, schedule: Q01DX009 (ip), vehicle: saline with Tween-80) was 113 % of control.
In the case of `COc1ccccc1Oc1ccc(N=Cc2ccc(C)cc2)cc1`, the T/C (dose: 12.0 mg/kg/injection, schedule: Q01DX001 (ip), vehicle: Klucel (hydroxypropylcellulose) (HPC)) was 100 % of control, the T/C (dose: 25.0 mg/kg/injection, schedule: Q01DX001 (ip), vehicle: Klucel (hydroxypropylcellulose) (HPC)) was 104 % of control and the T/C (dose: 50.0 mg/kg/injection, schedule: Q01DX001 (ip), vehicle: Klucel (hydroxypropylcellulose) (HPC)) was 95 % of control. The T/C (dose: 100.0 mg/kg/injection, schedule: Q01DX001 (ip), vehicle: Klucel (hydroxypropylcellulose) (HPC)) was 100 % of control.
For `COc1ccc2[nH]c(C)c(SC)c2c1`, the T/C (dose: 50.0 mg/kg/injection, schedule: Q04DX002 (ip), vehicle: saline with Tween-80) was 98 % of control, the T/C (dose: 100.0 mg/kg/injection, schedule: Q04DX002 (ip), vehicle: saline with Tween-80) was 100 % of control and the T/C (dose: 200.0 mg/kg/injection, schedule: Q04DX002 (ip), vehicle: saline with Tween-80) was 89 % of control.
